US20260015360A1 (MOMA Therapeutics, Inc., priority 2023, published 2026)

Target: T1, biotinylated Avi-POLΘ[2-894] (Homo sapiens, UniProt O75417)
T1 construct: 1 nM biotinylated Avi-POLΘ[2-894]
Experiment: ATPase assay (ADP-Glo): POLΘ-mediated ATP hydrolysis
Conditions: read-out: Biochemical ATPase ADPGlo IC50

T1 sequence (O75417 2-894 limits assumed): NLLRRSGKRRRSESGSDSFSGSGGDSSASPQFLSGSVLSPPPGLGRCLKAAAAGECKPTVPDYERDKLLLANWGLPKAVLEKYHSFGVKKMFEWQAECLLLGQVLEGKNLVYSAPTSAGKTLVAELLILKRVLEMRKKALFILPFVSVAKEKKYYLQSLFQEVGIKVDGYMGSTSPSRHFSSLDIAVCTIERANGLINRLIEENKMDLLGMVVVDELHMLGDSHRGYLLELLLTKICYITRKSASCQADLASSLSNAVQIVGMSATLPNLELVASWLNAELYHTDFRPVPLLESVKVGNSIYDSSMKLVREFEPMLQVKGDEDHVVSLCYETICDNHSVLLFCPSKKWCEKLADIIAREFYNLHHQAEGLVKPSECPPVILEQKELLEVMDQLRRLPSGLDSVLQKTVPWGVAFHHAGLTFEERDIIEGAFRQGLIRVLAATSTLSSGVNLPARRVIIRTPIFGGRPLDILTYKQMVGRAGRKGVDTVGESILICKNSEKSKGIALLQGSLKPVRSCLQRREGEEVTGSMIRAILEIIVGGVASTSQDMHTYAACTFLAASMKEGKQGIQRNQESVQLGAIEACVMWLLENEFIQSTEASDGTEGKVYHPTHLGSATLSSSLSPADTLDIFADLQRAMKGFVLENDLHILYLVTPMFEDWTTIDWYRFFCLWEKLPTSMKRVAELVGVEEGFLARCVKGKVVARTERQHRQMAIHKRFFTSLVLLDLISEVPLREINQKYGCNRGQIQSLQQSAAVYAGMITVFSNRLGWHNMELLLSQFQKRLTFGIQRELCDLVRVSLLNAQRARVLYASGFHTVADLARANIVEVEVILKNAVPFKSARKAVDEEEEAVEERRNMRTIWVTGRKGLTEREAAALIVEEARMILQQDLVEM

Compound	IC50 [nM]
COc1ccc(C#N)cc1-c1cc(C)ncc1C(=O)Nc1nc2ncc(N3CCC(O)(C(F)F)CC3)nc2s1 (single isomer, unassigned) [Example 418, 4-(5-cyano-2-methoxyphenyl)-N-(6-(4-(difluoromethyl)-4-hydroxypiperidin-1-yl)thiazolo[4,5-b]pyrazin-2-yl)-6-methylnicotinamide]	1 to 15
COc1cnc(Cl)cc1-c1cc(C)ncc1C(=O)Nc1nc2ncc(C3CCOC3)nc2s1 (single isomer, unassigned) [Example 473, (R or S)-2′-chloro-5′-methoxy-6-methyl-N-(6-(tetrahydrofuran-3-yl)thiazolo[4,5-b]pyrazin-2-yl)-[4,4′-bipyridine]-3-carboxamide]	15 to 50
COc1cnc(Cl)cc1-c1cc(C)ncc1C(=O)Nc1nc2ncc(C3CCOC3)nc2s1 (single isomer, unassigned) [Example 479, (S or R)-2′-chloro-5′-methoxy-6-methyl-N-(6-(tetrahydrofuran-3-yl)thiazolo[4,5-b]pyrazin-2-yl)-[4,4′-bipyridine]-3-carboxamide]	1 to 15
COc1cnc(Cl)cc1-c1cc(C)ncc1C(=O)Nc1nc2ncc(C3CCOC3)cc2s1 (single isomer, unassigned) [Example 516, (S or R)-2′-chloro-5′-methoxy-6-methyl-N-(6-(tetrahydrofuran-3-yl)thiazolo[4,5-b]pyridin-2-yl)-[4,4′-bipyridine]-3-carboxamide]	1 to 15
COc1cnc(Cl)cc1-c1cc(C)ncc1C(=O)Nc1nn2cc(C(=O)N[C@H]3C[C@](O)(C(F)(F)F)C3)nc2s1 [Example 32, 2-(2′-chloro-5′-methoxy-6-methyl-[4,4′-bipyridine]-3-carboxamido)-N-((1s,3s)-3-hydroxy-3-(trifluoromethyl)cyclobutyl)imidazo[2,1-b][1,3,4]thiadiazole-6-carboxamide]	> 900
COc1cnc(Cl)cc1-c1cc(C)ncc1C(=O)Nc1nn2cc(C(=O)N3CC[C@H](O)C3)nc2s1 [Example 36, (S)-2′-chloro-N-(6-(3-hydroxypyrrolidine-1-carbonyl)imidazo[2,1-b][1,3,4]thiadiazol-2-y1)-5′-methoxy-6-methyl-[4,4′-bipyridine]-3-carboxamide]	15 to 50
COc1ccccc1-c1cc(C)ncc1C(=O)Nc1nc2ccc(Br)cc2o1 [Example 54, N-(6-Bromobenzo[d]oxazol-2-y1)-4-(2-methoxyphenyl)-6-methylnicotinamide]	15 to 50
COc1ccccc1-c1cc(C)ncc1C(=O)Nc1nc2ncc(C(F)(F)F)cc2s1 [Example 116]	15 to 50
COc1ccccc1-c1cc(C)ncc1C(=O)Nc1nc2nnc(Cl)cc2s1 [Example 117]	15 to 50
Cc1cc(C2=CCN(C(=O)OC(C)(C)C)CC2)c(C(=O)Nc2nc3ncc(-c4ccncc4)nc3s2)cn1 [Example 139]	150 to 900
Cc1cc(N2CCN(c3nccs3)CC2)c(C(=O)Nc2nc3ncc(-c4ccncc4)cc3s2)cn1 [Example 159, 6-methyl-N-(6-(pyridin-4-yl)thiazolo[4,5-b]pyridin-2-yl)-4-(4-(thiazol-2-yl)piperazin-1-yl)nicotinamide]	150 to 900
COc1ccccc1-c1cc(C)ncc1C(=O)Nc1nn2cc(C3CC3)nc2s1 [Example 168, N-(6-cyclopropylimi-dazo[2,1-b][1,3,4]thiadiazol-2-yl)-4-(2-methoxyphenyl)-6-methylnicotinamide]	150 to 900
CC(=O)N1CC2(C1)CN(c1cc(C)ncc1C(=O)Nc1nc3ncc(-c4ccncc4)cc3s1)C2 [Example 202]	> 900
COc1cnc(Cl)cc1-c1cc(C)ncc1C(=O)Nc1nn2cc(C(=O)N[C@H]3CC[C@@H](O)CC3)nc2s1 [Example 292]	1 to 15
COc1cnc(Cl)cc1-c1cc(C)ncc1C(=O)Nc1nn2cc(C3CCCCC3)nc2s1 [Example 315]	1 to 15
COc1ccc(C#N)cc1-c1cc(C)ncc1C(=O)Nc1nn2cc(C(=O)N(C)C)nc2s1 [Example 316, 2-(4-(5-cyano-2-methoxyphenyl)-6-methylnicotinamido)-N,N-dimethylimidazo[2,1-b][1,3,4]thiadiazole-6-carboxamide]	15 to 50
COc1cnc(Cl)cc1-c1cc(C)ncc1C(=O)Nc1nc2ncc(C3(OC)CCOCC3)nc2s1 [Example 373, 2′-chloro-5′-methoxy-N-(6-(4-methoxytetrahydro-2H-pyran-4-yl)thiazolo[4,5-b]pyrazin-2-yl)-6-methyl-[4,4′-bipyridine]-3-carboxamide]	1 to 15

Compound	IC50 [nM]
COc1cnc(Cl)cc1-c1cc(C)ncc1C(=O)Nc1nc2ncc(C3(O)CCOCC3)nc2s1 [Example 390, 2′-chloro-N-(6-(4-hydroxytetrahydro-2H-pyran-4-yl)thiazolo[4,5-b]pyrazin-2-yl)-5′-methoxy-6-methyl-[4,4′-bipyridine]-3-carboxamide]	15 to 50
COc1cnc(Cl)cc1-c1cc(C)ncc1C(=O)Nc1nc2ncc(N3CCO[C@H]4CCC[C@@H]43)nc2s1 [Example 393, 2′-chloro-N-(6-((4aS,7aS)-hexahydrocyclopenta[b][1,4]oxazin-4(4aH)-yl)thiazolo[4,5-b]pyrazin-2-yl)-5′-methoxy-6-methyl-[4,4′-bipyridine]-3-carboxamide]	15 to 50
COc1cnc(Cl)cc1-c1cc(C)ncc1C(=O)Nc1nc2ncc(N3CCO[C@@H]4CCC[C@@H]43)nc2s1 [Example 395, 2′-chloro-N-(6-((4aS,7aR)-hexahydrocyclopenta[b][1,4]oxazin-4(4aH)-yl)thiazolo[4,5-b]pyrazin-2-yl)-5′-methoxy-6-methyl-[4,4′-bipyridine]-3-carboxamide]	15 to 50
COc1cnc(Cl)cc1-c1cc(C)ncc1C(=O)Nc1nc2ncc(N3[C@H](C)COC[C@@H]3C)nc2s1 [Example 404, 2′-chloro-N-(6-((3R,5S)-3,5-dimethylmorpholino)thiazolo [4,5-b]pyrazin-2-yl)-5′-methoxy-6-methyl-[4,4′-bipyridine]-3-carboxamide]	15 to 50
COc1cnc(Cl)cc1-c1cc(C)ncc1C(=O)Nc1nc2ncc(N3CCOC[C@@H]3C(F)(F)F)nc2s1 [Example 414, (R)-2′-chloro-5′-methoxy-6-methyl-N-(6-(3-(trifluoromethyl)morpholino)thiazolo[4,5-b]pyrazin-2-yl)-[4,4′-bipyridine]-3-carboxamide]	15 to 50
COc1cnc(Cl)cc1-c1cc(C)ncc1C(=O)Nc1nc2ncc(N3CCOC[C@H]3C(F)(F)F)nc2s1 [Example 416, (S)-2′-chloro-5′-methoxy-6-methyl-N-(6-(3-(trifluoromethyl)morpholino)thiazolo[4,5-b]pyrazin-2-yl)-[4,4′-bipyridine]-3-carboxamide]	15 to 50
COc1cnc(Cl)cc1-c1cc(C)ncc1C(=O)Nc1nc2ncc(N3C[C@@H](C)OC[C@@H]3C)nc2s1 [Example 419, 2′-chloro-N-(6-((2R,5S)-2,5-dimethylmorpholino)thiazolo [4,5-b]pyrazin-2-yl)-5′-methoxy-6-methyl-[4,4′-bipyridine]-3-carboxamide]	1 to 15
COc1cnc(Cl)cc1-c1cc(C)ncc1C(=O)Nc1nc2ncc(N3[C@H](C)COC[C@H]3C)nc2s1 [Example 423, 2′-chloro-N-(6-((3R,5R)-3,5-dimethylmorpholino)thiazolo [4,5-b]pyrazin-2-yl)-5′-methoxy-6-methyl-[4,4′-bipyridine]-3-carboxamide]	1 to 15
COc1cnc(Cl)cc1-c1cc(C)ncc1C(=O)Nc1nc2ncc(N3CCOC(C)C3C)nc2s1 (stereo not drawn) [Example 425, 2′-chloro-N-(6-(2,3-dimethylmorpholino)thiazolo [4,5-b]pyrazin-2-yl)-5′-methoxy-6-methyl-[4,4′-bipyridine]-3-carboxamide]	1 to 15
COc1cnc(Cl)cc1-c1cc(C)ncc1C(=O)Nc1nc2ncc(N3CCOCC3C(F)F)nc2s1 (stereo not drawn) [Example 426, 2′-chloro-N-(6-(3-(difluoromethyl)morpholino)thiazolo[4,5-b]pyrazin-2-yl)-5′-methoxy-6-methyl-[4,4′-bipyridine]-3-carboxamide]	15 to 50
COc1cnc(Cl)cc1-c1cc(C)ncc1C(=O)Nc1nc2ncc(N3C[C@@H](C)O[C@@H](C)C3)nc2s1 [Example 437, 2′-chloro-N-(6-((2S,6R)-2,6-dimethylmorpholino)thiazolo [4,5-b]pyrazin-2-yl)-5′-methoxy-6-methyl-[4,4′-bipyridine]-3-carboxamide]	1 to 15
COc1cnc(Cl)cc1-c1cc(C)ncc1C(=O)Nc1nc2ncc([C@H]3CC[C@@H](C#N)CC3)nc2s1 [Example 451, 2′-chloro-N-(6-((1s,4s)-4-cyanocyclohexyl)thiazolo[4,5-b]pyrazin-2-yl)-5′-methoxy-6-methyl-[4,4′-bipyridine]-3-carboxamide]	1 to 15
COc1cnc(Cl)cc1-c1cc(C)ncc1C(=O)Nc1nc2ncc(N3CC[C@H](OC)[C@H](F)C3)nc2s1 [Example 453, 2′-chloro-N-(6-((3R,4S)-3-fluoro-4-methoxypiperidin-1-yl)thiazolo[4,5-b]pyrazin-2-yl)-5′-methoxy-6-methyl-[4,4′-bipyridine]-3-carboxamide]	1 to 15
COc1cnc(Cl)cc1-c1cc(C)ncc1C(=O)Nc1nc2ncc(N3CC[C@@H](OC)[C@H](F)C3)nc2s1 [Example 456, 2′-chloro-N-(6-((3R,4R)-3-fluoro-4-methoxypiperidin-1-yl)thiazolo[4,5-b]pyrazin-2-yl)-5′-methoxy-6-methyl-[4,4′-bipyridine]-3-carboxamide]	1 to 15
COc1cnc(Cl)cc1-c1cc(C)ncc1C(=O)Nc1nc2ncc(N3CCC(N(C)C)CC3)nc2s1 [Example 469, 2′-chloro-N-(6-(4-(dimethylamino)piperidin-1-yl)thiazolo[4,5-b]pyrazin-2-yl)-5′-methoxy-6-methyl-[4,4′-bipyridine]-3-carboxamide]	1 to 15
CNC1CCN(c2cnc3nc(NC(=O)c4cnc(C)cc4-c4cc(Cl)ncc4OC)sc3n2)CC1 [Example 477, 2′-chloro-5′-methoxy-6-methyl-N-(6-(4-(methylamino)piperidin-1-yl)thiazolo[4,5-b]pyrazin-2-yl)-[4,4′-bipyridine]-3-carboxamide]	15 to 50
